Results: PubChem BioAssay AID1963963 (Molecular Pharmacology Branch, DTP, NCI, 2024)
pIC50: −log10 of the molar value.

Test system: 958667-338-R-J2-PDC tumor spheroids viability
Assay: Anticancer human tumor 958667-338-R-J2-PDC patient-derived colon adenocarcinoma cell line growth inhibition [PI3K]
Settings: spheroids with HUVEC and MSC; for viability, T/C: stronger effect = lower value; active means viability on the fitted dose curve at most 10% of control; inactive means the rest
Summary of the method: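 Agents were dosed from a top concentration near clinical Cmax (otherwise 10 microM) in half-log decrements, alone or combined with PI3K inhibitors. The spheroids contain tumor cells plus endothelial (HUVEC) and MSC stroma; viability is measured.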

[1] = curve of first compound, second compound 0.0316 µM
[2] = curve of first compound, second compound 0.1 µM
[3] = curve of first compound, second compound 0.316 µM
[4] = curve of first compound, second compound 1 µM
[5] = second compound 0.0316 µM, first compound 0.0316 µM
[6] = second compound 0.0316 µM, first compound 0.1 µM
[7] = second compound 0.0316 µM, first compound 0.316 µM
[8] = second compound 0.0316 µM, first compound 1 µM
[9] = second compound 0.0316 µM, first compound 3.16 µM
[10] = second compound 0.0316 µM, first compound 10 µM
[11] = second compound 0.1 µM, first compound 0.0316 µM
[12] = second compound 0.1 µM, first compound 0.1 µM
[13] = second compound 0.1 µM, first compound 0.316 µM
[14] = second compound 0.1 µM, first compound 1 µM
[15] = second compound 0.1 µM, first compound 3.16 µM
[16] = second compound 0.1 µM, first compound 10 µM
[17] = second compound 0.316 µM, first compound 0.0316 µM
[18] = second compound 0.316 µM, first compound 0.1 µM
[19] = second compound 0.316 µM, first compound 0.316 µM
[20] = second compound 0.316 µM, first compound 1 µM
[21] = second compound 0.316 µM, first compound 3.16 µM
[22] = second compound 0.316 µM, first compound 10 µM
[23] = second compound 1 µM, first compound 0.0316 µM
[24] = second compound 1 µM, first compound 0.1 µM
[25] = second compound 1 µM, first compound 0.316 µM
[26] = second compound 1 µM, first compound 1 µM
[27] = second compound 1 µM, first compound 3.16 µM
[28] = second compound 1 µM, first compound 10 µM
[29] = curve of first compound, second compound 3.16 µM
[30] = curve of first compound, second compound 10 µM
[31] = second compound 3.16 µM, first compound 0.0316 µM
[32] = second compound 3.16 µM, first compound 0.1 µM
[33] = second compound 3.16 µM, first compound 0.316 µM
[34] = second compound 3.16 µM, first compound 1 µM
[35] = second compound 3.16 µM, first compound 3.16 µM
[36] = second compound 3.16 µM, first compound 10 µM
[37] = second compound 10 µM, first compound 0.0316 µM
[38] = second compound 10 µM, first compound 0.1 µM
[39] = second compound 10 µM, first compound 0.316 µM
[40] = second compound 10 µM, first compound 1 µM
[41] = second compound 10 µM, first compound 3.16 µM
[42] = second compound 10 µM, first compound 10 µM
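Further: spheroids exposed to compounds for seven days before readout.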

C#Cc1c(F)ccc2cc(O)cc(-c3ncc4c(N5CC6CCC(C5)N6)nc(OCC56CCCN5CC(F)C6)nc4c3F)c12 (stereo not drawn) + CC(Nc1ccc2c(c1)OCCn1cc(N3C(=O)OCC3C(F)F)nc1-2)C(N)=O
5.18: pIC50 [2]
5.46: pIC50 [3]
5.07: pIC50 [1]
5.85: pIC50 [4]
inactive: viability, T/C (second compound 0.00316 µM, first compound 0.0316 µM) 95.2% | viability, T/C (second compound 0.00316 µM, first compound 0.1 µM) 97.9% | viability, T/C (second compound 0.00316 µM, first compound 0.316 µM) 110% | viability, T/C (second compound 0.00316 µM, first compound 1 µM) 90.9% | viability, T/C (second compound 0.00316 µM, first compound 3.16 µM) 90.6% | viability, T/C (second compound 0.00316 µM, first compound 10 µM) 60.7% | viability, T/C (second compound 0.01 µM, first compound 0.0316 µM) 101% | viability, T/C (second compound 0.01 µM, first compound 0.1 µM) 120% | viability, T/C (second compound 0.01 µM, first compound 0.316 µM) 121% | viability, T/C (second compound 0.01 µM, first compound 1 µM) 97.3% | viability, T/C (second compound 0.01 µM, first compound 3.16 µM) 74.2% | viability, T/C (second compound 0.01 µM, first compound 10 µM) 74.2% | viability, T/C [5] 99.9% | viability, T/C [6] 109% | viability, T/C [7] 100% | viability, T/C [8] 118% | viability, T/C [9] 83.1% | viability, T/C [10] 44.8% | viability, T/C [11] 69.2% | viability, T/C [12] 81% | viability, T/C [13] 77.4% | viability, T/C [14] 84.1% | viability, T/C [15] 71.4% | viability, T/C [16] 37.2% | viability, T/C [17] 69.1% | viability, T/C [18] 62% | viability, T/C [19] 66.7% | viability, T/C [20] 85.6% | viability, T/C [21] 52.4% | viability, T/C [22] 22.5% | viability, T/C [23] 61% | viability, T/C [24] 64.4% | viability, T/C [25] 44.6% | viability, T/C [26] 57.2% | viability, T/C [27] 45% | viability, T/C [28] 25.6%
< 5.00: pIC50 (curve of first compound, second compound 0.00316 µM) | pIC50 (curve of first compound, second compound 0.01 µM)

Cn1ncc(Cl)c1-c1cc(C(=O)NC(CN)Cc2cccc(F)c2)sc1Cl (stereo not drawn) + Cc1nc(NC(=O)N2CCCC2C(N)=O)sc1-c1ccnc(C(C)(C)C(F)(F)F)c1
inactive: viability, T/C [5] 88.2% | viability, T/C [6] 84.3% | viability, T/C [7] 89.2% | viability, T/C [8] 70.5% | viability, T/C [9] 44.7% | viability, T/C [10] 37.2% | viability, T/C [11] 84.4% | viability, T/C [12] 81.7% | viability, T/C [13] 97.5% | viability, T/C [14] 69.5% | viability, T/C [15] 41.3% | viability, T/C [16] 34.8% | viability, T/C [17] 71.4% | viability, T/C [18] 65.6% | viability, T/C [19] 64.6% | viability, T/C [20] 63.7% | viability, T/C [21] 39% | viability, T/C [22] 26.9% | viability, T/C [23] 71.7% | viability, T/C [24] 80.9% | viability, T/C [25] 57.3% | viability, T/C [26] 63.7% | viability, T/C [27] 31.2% | viability, T/C [28] 24.9% | viability, T/C [31] 66.7% | viability, T/C [32] 64.4% | viability, T/C [33] 72% | viability, T/C [34] 56% | viability, T/C [35] 27.6% | viability, T/C [36] 18.1% | viability, T/C [37] 49.4% | viability, T/C [38] 44.7% | viability, T/C [39] 46% | viability, T/C [40] 41.7% | viability, T/C [41] 23.8% | viability, T/C [42] 15.1%
5.61: pIC50 [1]
5.73: pIC50 [3]
5.88: pIC50 [29]
5.80: pIC50 [4]
> 7.50: pIC50 [30]
5.69: pIC50 [2]

CC(C)NCC(C(=O)N1CCN(c2ncnc3c2C(C)CC3O)CC1)c1ccc(Cl)cc1 (stereo not drawn) + CC(Nc1ncnc2nc[nH]c12)c1cc2cccc(Cl)c2c(=O)n1-c1ccccc1
< 5.00: pIC50 [1] | pIC50 [2] | pIC50 [3] | pIC50 [4] | pIC50 [29] | pIC50 [30]
inactive: viability, T/C [5] 81.9% | viability, T/C [6] 97.3% | viability, T/C [7] 72.1% | viability, T/C [8] 82% | viability, T/C [9] 89.7% | viability, T/C [10] 64% | viability, T/C [11] 102% | viability, T/C [12] 95.7% | viability, T/C [13] 86.5% | viability, T/C [14] 95.7% | viability, T/C [15] 92.4% | viability, T/C [16] 68.7% | viability, T/C [17] 94.7% | viability, T/C [18] 104% | viability, T/C [19] 80% | viability, T/C [20] 94% | viability, T/C [21] 83.3% | viability, T/C [22] 70.5% | viability, T/C [23] 85.9% | viability, T/C [24] 80.6% | viability, T/C [25] 93.4% | viability, T/C [26] 101% | viability, T/C [27] 77.8% | viability, T/C [28] 63.4% | viability, T/C [31] 77.4% | viability, T/C [32] 87.5% | viability, T/C [33] 102% | viability, T/C [34] 84.2% | viability, T/C [35] 80.2% | viability, T/C [36] 64.7% | viability, T/C [37] 91.2% | viability, T/C [38] 88.4% | viability, T/C [39] 79.3% | viability, T/C [40] 83.2% | viability, T/C [41] 81.7% | viability, T/C [42] 55.2%

C=CC(=O)N1CCN(c2nc(=O)n(-c3c(C)ccnc3C(C)C)c3nc(-c4c(O)cccc4F)c(F)cc23)C(C)C1 (stereo not drawn)
< 5.00: pIC50 (curve of compound)
inactive: viability, T/C (compound 0.1 µM) 108% [middle of 4 runs] | viability, T/C (compound 0.316 µM) 103% [middle of 4 runs] | viability, T/C (compound 1 µM) 114% [middle of 4 runs] | viability, T/C (compound 3.16 µM) 113% [middle of 4 runs]

C=CC(=O)N1CCN(c2nc(=O)n(-c3c(C)ccnc3C(C)C)c3nc(-c4c(O)cccc4F)c(F)cc23)C(C)C1 (stereo not drawn) + CC(Nc1ncnc2nc[nH]c12)c1cc2cccc(Cl)c2c(=O)n1-c1ccccc1
< 5.00: pIC50 [1] | pIC50 [2] | pIC50 [3] | pIC50 [4] | pIC50 [29] | pIC50 [30]
inactive: viability, T/C [5] 118% | viability, T/C [6] 117% | viability, T/C [7] 104% | viability, T/C [8] 109% | viability, T/C [9] 130% | viability, T/C [10] 127% | viability, T/C [11] 106% | viability, T/C [12] 118% | viability, T/C [13] 112% | viability, T/C [14] 104% | viability, T/C [15] 118% | viability, T/C [16] 98% | viability, T/C [17] 116% | viability, T/C [18] 90.8% | viability, T/C [19] 93.6% | viability, T/C [20] 149% | viability, T/C [21] 116% | viability, T/C [22] 96.8% | viability, T/C [23] 108% | viability, T/C [24] 106% | viability, T/C [25] 85.9% | viability, T/C [26] 96.5% | viability, T/C [27] 123% | viability, T/C [28] 120% | viability, T/C [31] 89.8% | viability, T/C [32] 88.1% | viability, T/C [33] 99.9% | viability, T/C [34] 125% | viability, T/C [35] 112% | viability, T/C [36] 111% | viability, T/C [37] 93.3% | viability, T/C [38] 90.3% | viability, T/C [39] 115% | viability, T/C [40] 104% | viability, T/C [41] 101% | viability, T/C [42] 105%
